In PubChem BioAssay (NCI):
“And” between values parts separate entries of the source, which are not always exact repeats. Equal entries are not always repeated.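 Grown in 96-well plates, cells were treated for 48 hours with each compound at five concentrations. Insufficient inhibition: endpoint recorded as highest concentration tested. Here, GI50 denotes the concentration required for 50% inhibition of growth. Definition used: TGI = concentration required for complete inhibition of growth.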

Experiments:
Assay in all cases: NCI tumour cell line growth inhibition, 48 h
[1] = test system: SNB-19 CNS
[2] = test system: SF-539 CNS
[3] = test system: CCRF-CEM leukemia
[4] = test system: SK-MEL-28 melanoma
[5] = test system: SK-MEL-5 melanoma
[6] = test system: IGROV1 ovarian
[7] = test system: SN12C renal
[8] = test system: 786-0 renal
[9] = test system: SR leukemia
[10] = test system: HOP-62 NSCLC

Row | SMILES | GI50 [1] | TGI [1] | GI50 [2] | TGI [2] | TGI [3] [µM] | GI50 [4] | TGI [4] | GI50 [5] | TGI [5] | GI50 [6] | TGI [6] | GI50 [7] | TGI [7] | GI50 [8] | TGI [8] | GI50 [9] | GI50 [10] | TGI [10] | TGI [9] | GI50 [3]
1 | COc1ccc(C(=O)/C=C/c2ccc(O)c(O)c2F)c(OC)c1 | 10.7 µM | 19 µM and 26.1 µM | 4.5 µM | 15.7 µM and 28.5 µM | 6.5 | 11.6 µM | 33.4 µM and 30.7 µM | 2.7 µM | 13.6 µM and 19.6 µM | 12.8 µM | 75 µM and > 100 µM | 2.42 µM | 18.6 µM and 11.9 µM | 1.88 µM | 31.3 µM and 17.1 µM | 0.072 µM | 19.8 µM | 37.1 µM and > 100 µM | – | –
2 | CCN(CC)CCCN(c1cc(OC)cc2nccnc12)S(=O)(=O)c1ccc(C)cc1 | – | > 100 µM | – | > 100 µM | > 100 | – | > 100 µM | – | > 100 µM | – | > 100 µM | – | > 100 µM | – | > 100 µM | – | – | > 100 µM | > 100 µM | –
3 | CC(C)C[C@@H](NC(=O)[C@@H](Cc1ccccc1)NC(=O)c1cnccn1)B1O[C@H]2[C@H](O)[C@@H](C(=O)NCCCC[C@@H]3NC(=O)[C@@H](Cc4ccccc4)NC(=O)[C@H](CC(=O)O)NC(=O)CNC(=O)[C@H](CCCN=C(N)N)NC3=O)O[C@@H](CN)[C@H]2O1 | 0.0136 µM and 0.005 µM | 5.12 µM | 0.00319 µM and 0.005 µM | 0.015 µM and 0.0123 µM | – | 0.00766 µM and 0.005 µM | 0.285 µM and 0.235 µM | 0.00457 µM and 0.005 µM | 0.0188 µM and 0.00855 µM | 0.0312 µM and 0.0214 µM | 0.254 µM and 1.03 µM | 0.0117 µM and 0.013 µM | 0.055 µM and 0.485 µM | 0.00465 µM and 0.005 µM | – | 0.00261 µM | 0.0125 µM and 0.0189 µM | – | – | 0.00347 µM and 0.005 µM
4 | CN(C)CCCCN1CCc2c(n(C)c3ccccc23)C1=O | – | > 100 µM | 50.5 µM and 21.7 µM | 68.9 µM and 44 µM | > 100 | – | 39.7 µM and 31.4 µM | – | 42.8 µM and 31.9 µM | – | > 100 µM | – | > 90.1 µM and 98 µM | – | > 79.7 µM and 49.4 µM | 53.3 µM and 12.7 µM | – | > 80.8 µM and 63.7 µM | > 100 µM and 35.9 µM | –
5 | COc1cccc(N2C(=O)c3c(c4[nH]c5ccccc5c4c4ccc(C(C)(C)C)cc34)C2=O)c1 | – | > 100 µM | – | > 100 µM | > 100 | – | > 100 µM | – | > 100 µM | – | > 100 µM | – | > 100 µM | – | > 100 µM | – | – | > 100 µM | > 100 µM | –
6 | CC(C)(C)NNC(=O)/C(=C/c1ccc(Oc2ccc(Cl)c(Cl)c2)cc1)NC(=O)c1ccccc1 | – | > 100 µM | – | > 100 µM | > 100 | – | > 100 µM | – | > 100 µM | – | > 100 µM | – | > 100 µM | – | > 100 µM | – | – | > 100 µM | 35.9 µM | –
7 | O=C1c2ccccc2-c2c1c1ccccc1c(=O)n2CCCNCCCn1c2c(c3ccccc3c1=O)C(=O)c1ccccc1-2 | 6.83 µM | > 40.5 µM | 3.83 µM | 13 µM | > 50 | 11 µM | > 36.9 µM | 7.21 µM | 16.9 µM | 1.63 µM | > 50 µM | 3.4 µM | 14.9 µM | 8.53 µM | 29.8 µM | 14.3 µM | 2.68 µM | 9.19 µM | > 50 µM | 12.6 µM
8 | O=C(CCN1CCN(c2cccc(Cl)c2)CC1)N1CCc2c([nH]c3ccccc23)C1c1cccnc1 (stereo unspecified) | – | 26.9 µM | – | 31.2 µM | > 100 | – | 26.9 µM | 7.72 µM | 21.9 µM | 18.7 µM | > 100 µM | 7.59 µM | 21.1 µM | 5.96 µM | 18.7 µM | 5.06 µM | – | 23.9 µM | 7.83 µM and 27 µM | 6.62 µM
9 | N#CC1=C(N)Oc2cc3c(cc2C1c1cccs1)OCO3 (stereo unspecified) | 1.36 µM | > 100 µM | 0.747 µM | 11.2 µM | > 29.8 | 1.12 µM | > 100 µM | 0.34 µM | > 43.5 µM | 1.1 µM | > 100 µM | 0.723 µM | > 100 µM | 0.686 µM | > 68.3 µM | 0.27 µM | 0.484 µM | > 100 µM | > 100 µM | 0.404 µM
10 | CCC1=C(C)/C(=C/c2[nH]c(C)c(C(=O)CCCCC(=O)OC)c2C)N=C1c1ccc[nH]1 | 15.1 µM | 38.4 µM | 13.2 µM | 27.1 µM | 6.63 | 7.25 µM | 25.8 µM | 7.8 µM | 20.8 µM | 21.5 µM | > 63.8 µM | 22.2 µM | > 100 µM | 15.1 µM | 32 µM | 1.3 µM | 13.9 µM | 28.5 µM | 5.49 µM | 0.204 µM
11 | CCn1c(=O)c(-c2ccn[nH]2)cc2c(C)nc(N)nc21 | 4.57 µM | > 100 µM | 1.77 µM | 10.1 µM | > 100 | 0.97 µM | 6.13 µM | 1.38 µM | 6.3 µM | 0.32 µM | 2.17 µM | 1.4 µM | > 100 µM | 0.511 µM | 5.59 µM | 1.64 µM | 0.575 µM | 5.91 µM | > 100 µM | 1.68 µM
12 | Cc1cc2c(cc1C)NC(=O)C(NC(=O)/C=C/c1ccccc1)C=N2 (stereo unspecified) | – | > 100 µM | – | > 100 µM | 26 | – | > 100 µM | – | > 100 µM | – | > 100 µM | – | > 100 µM | – | > 100 µM | – | – | > 100 µM | 58 µM | –
13 | CN1CCN(Cc2ccc(-c3cc4ncnc(Nc5ccc(OCc6cccc(F)c6)c(Cl)c5)c4s3)o2)CC1 | 4.8 µM | 9.86 µM | 4.17 µM | 8.55 µM | 9.18 | 4.08 µM | 7.61 µM | 3.77 µM | 7.54 µM | 3.51 µM | 8.34 µM | 3.79 µM | 7.85 µM | 4.47 µM | 8.95 µM | 4.43 µM | 4.64 µM | 9.12 µM | 10 µM | 3.81 µM
14 | CC(C)(C)[Si](C)(C)OCC1CCC(n2cnc3c(NC(=O)c4ccccc4)ncnc32)O1 (stereo unspecified) | – | 33.9 µM | – | 32.9 µM | 47.1 | – | 27.9 µM | – | 23.7 µM | – | 32.7 µM | – | 34 µM | – | 31.3 µM | – | – | 38 µM | 53.9 µM | –
15 | CCNC(=O)C[C@@H]1N=C(c2ccc(Cl)cc2)c2cc(OC)ccc2-n2c(C)nnc21 | 5.11 µM | > 100 µM | 2.33 µM | > 100 µM | > 100 | 11.2 µM | > 100 µM | – | > 100 µM | 12.2 µM | > 100 µM | 15.5 µM | > 100 µM | 16.4 µM | > 100 µM | 0.567 µM | 2.1 µM | > 100 µM | > 100 µM | 7.44 µM
